Laboratory results taken from patent US6461997B1, “Triazole sulfones having herbicidal activity” (Monsanto Technology LLC, priority 1999, dated 2002).

Tests used:
[1] = test system: PANMI (wild proso millet); assay: Pre-emergence herbicidal activity, warm season; type: in vivo, Panicum miliaceum; conditions: GR80 = lowest tested rate (300, 100, 30, 10 g/ha) with 80% or greater inhibition; approx. 14 days after treating; 30/21° C.
Outline: (§1)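 Seeds were sown in sterilized, fertilized topsoil, covered, and the soil surface was sprayed with compound in 50:50 acetone/water at 300, 100, 30 and 10 g/ha. Pots were held at 30/21 °C day/night (PANMI, DIGSA) or 18/13 °C (ALOMY, POLCO). GR80 came from percent inhibition versus untreated plants at about 14 days.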

SORVU (shattercane) = assay: Pre-emergence herbicidal activity, warm season; type: in vivo, Sorghum vulgare; conditions: GR80 = lowest tested rate (300, 100, 30, 10 g/ha) with 80% or greater inhibition; approx. 14 days after treating; 30/21° C.
Outline: (§2)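 Seeds sown in sterilised fertilised topsoil received surface-applied compound in 50:50 acetone/water, typically at 300, 100, 30 and 10 g/ha, then greenhouse-grown at 30/21° C (warm-season species) or 18/13° C (cool-season species). Percent inhibition versus untreated plants was scored at about 14 days, giving GR80; an asterisk marks activity short of 80% at the top rate.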

[2] = test system: GALAP (catchweed bedstraw); assay: Pre-emergence herbicidal activity, cool season; type: in vivo, Galium aparine; conditions: lowest tested rate with 80% or greater inhibition; rates 300, 100, 30, 10 g/ha; about 14 days
Outline: as §2

POLCO (wild buckwheat) = assay: Pre-emergence herbicidal activity, cool season; type: in vivo, Polygonum convolvulus; conditions: lowest tested rate with 80% or greater inhibition; rates 300, 100, 30, 10 g/ha; about 14 days
Outline: as §1

SINAR (wild mustard) = assay: Pre-emergence herbicidal activity, cool season; type: in vivo, Sinapis arvensis; conditions: lowest tested rate with 80% or greater inhibition; rates 300, 100, 30, 10 g/ha; about 14 days
Outline: as §2

[3] = test system: VERPE (creeping speedwell); assay: Pre-emergence herbicidal activity, cool season; type: in vivo, Veronica persicaria; conditions: lowest tested rate with 80% or greater inhibition; rates 300, 100, 30, 10 g/ha; about 14 days
Outline: as §2

SASKR (russian thistle) = assay: Pre-emergence herbicidal activity, cool season; type: in vivo, Salsola kali; conditions: lowest tested rate with 80% or greater inhibition; rates 300, 100, 30, 10 g/ha; about 14 days
Outline: as §2

STEME (common chickweed) = assay: Pre-emergence herbicidal activity, cool season; type: in vivo, Stellaria media; conditions: lowest tested rate with 80% or greater inhibition; rates 300, 100, 30, 10 g/ha; about 14 days
Outline: as §2

[4] = test system: LAMPU (purple deadnettle); assay: Pre-emergence herbicidal activity, cool season; type: in vivo, Lamium purpureum; conditions: lowest tested rate with 80% or greater inhibition; rates 300, 100, 30, 10 g/ha; about 14 days
Outline: as §2

ALOMY (blackgrass) = assay: Post-emergence herbicidal activity, cool season; type: in vivo, Alopecurus myosuroides; conditions: abraded plants sprayed at 300, 100, 30 and 10 g/ha; about 14 days after treatment
Method: (§3) In another set of tests, the post-emergence activity of compounds of this invention was evaluated on the cool season species listed above. The following procedure was used.
(§4) A pre-prepared topsoil mixture (described above) was placed in a pot and compacted to a depth of 1.0 to 1.25 cm from the top of the pot. Seeds of each of several monocotyledonous and dicotyledonous annual plant species were placed on top of the soil. The seeds were covered with a mixture of 50% topsoil and 50% Rediearth™ in sufficient quantity to level-fill the pots. The pots were then placed on a greenhouse bench and subirrigated as needed.
(§5) When plants growing from the seeds had emerged and reached a suitable growth stage for post-emergence treatment, typically 9 to 14 days after planting, above-ground parts of the plants were subjected to a pre-treatment involving abrasion to create greater opportunity for foliar uptake of subsequently applied compounds. Abrasion was performed using garnet 200w particles applied with a Sears Craftsman hand-held sandblaster operated at approximately 850 kPa (50 psig) pressure.
(§6) A known amount of each test compound dissolved or suspended in an appropriate organic solvent was diluted with a 50:50 mix of acetone and water and applied to the plants by spraying with a standard spray nozzle in a spray volume of […] at a spray pressure of 511 kPa (30 psig). Only the compounds of Examples 1, 8-15 and 17-22 were included in post-emergence tests. Application rates for these compounds were 300, 100, 30 and 10 g/ha. Control plants were abraded but not sprayed.
(§7) After treatment the plants were placed in a greenhouse with an 18/13° C. day/night temperature regime and were subsequently watered as needed for growth. Approximately 14 days after treatment, the plants were observed and herbicidal efficacy recorded as percent inhibition by comparison with control plants. GR80 values were assigned for each compound as described above for the pre-emergence tests.

SETVI (green foxtail) = assay: Post-emergence herbicidal activity, cool season; type: in vivo, Setaria viridis; conditions: abraded plants sprayed at 300, 100, 30 and 10 g/ha; about 14 days after treatment
Method: as §3, §4, §5, §6, §7

LOLMG (annual ryegrass) = assay: Post-emergence herbicidal activity, cool season; type: in vivo, Lolium multiflorum; conditions: abraded plants sprayed at 300, 100, 30 and 10 g/ha; about 14 days after treatment
Method: as §3, §4, §5, §6, §7

BROTE (downy brome) = assay: Post-emergence herbicidal activity, cool season; type: in vivo, Bromus tectorum; conditions: abraded plants sprayed at 300, 100, 30 and 10 g/ha; about 14 days after treatment
Method: as §3, §4, §5, §6, §7

AVEFA (wild oat) = assay: Post-emergence herbicidal activity, cool season; type: in vivo, Avena fatua; conditions: abraded plants sprayed at 300, 100, 30 and 10 g/ha; about 14 days after treatment
Method: as §3, §4, §5, §6, §7

[5] = test system: AEGCY (jointed goatgrass); assay: Post-emergence herbicidal activity, cool season; type: in vivo, Aegilops cylindrica; conditions: abraded plants sprayed at 300, 100, 30 and 10 g/ha; about 14 days after treatment
Method: as §3, §4, §5, §6, §7

[6] = test system: AGSST (creeping bentgrass); assay: Post-emergence herbicidal activity, cool season; type: in vivo, Agrostis stolonifera; conditions: abraded plants sprayed at 300, 100, 30 and 10 g/ha; about 14 days after treatment
Method: as §3, §4, §5, §6, §7

[7] = test system: AGRRE (quackgrass (seedling)); assay: Post-emergence herbicidal activity, cool season; type: in vivo, Elymus repens; conditions: abraded plants sprayed at 300, 100, 30 and 10 g/ha; about 14 days after treatment
Method: as §3, §4, §5, §6, §7

Compound: CCN(CC)C(=O)n1cnc(S(=O)(=O)C(F)(F)SCCOC(C)=O)n1 [Example 21]
- Pre-emergence activity (GR80) PANMI [1]: * (activity observed, at least at highest rate, but <80% inhibition)
- Pre-emergence activity (GR80) SORVU (SORVU (shattercane)): * (activity observed, at least at highest rate, but <80% inhibition)
- Pre-emergence activity GR80, GALAP [2]: 300 g/ha
- Pre-emergence activity GR80, POLCO (POLCO (wild buckwheat)): [empty]
- Pre-emergence activity GR80, SINAR (SINAR (wild mustard)): [empty]
- Pre-emergence activity GR80, VERPE [3]: 300 g/ha
- Pre-emergence activity GR80, SASKR (SASKR (russian thistle)): [empty]
- Pre-emergence activity GR80, STEME (STEME (common chickweed)): [empty]
- Pre-emergence activity GR80, LAMPU [4]: 300 g/ha
- Post-emergence activity GR80, ALOMY (ALOMY (blackgrass)): [empty]
- Post-emergence activity GR80, SETVI (SETVI (green foxtail)): [empty]
- Post-emergence activity GR80, LOLMG (LOLMG (annual ryegrass)): [empty]
- Post-emergence activity GR80, BROTE (BROTE (downy brome)): [empty]
- Post-emergence activity GR80, AVEFA (AVEFA (wild oat)): [empty]
- Post-emergence activity GR80, AEGCY [5]: [empty]
- Post-emergence activity GR80, AGSST [6]: [empty]
- Post-emergence activity GR80, AGRRE [7]: [empty]
